Assays:
rat MH3924A cells [1] = assay: Subcutaneous MH3924A xenograft model; format: in vivo; conditions: scid mice
Description: Female scid mice (InVivos, Singapore) were subcutaneously inoculated with 1×10^6rat MH3924A cells that were stably transfected with either shRNA Pycr1.2 or scrambled control shRNA. Mice were sacrificed and tumors excised 3 weeks later.

rat MH3924A cells [2] = assay: Orthotopic MH3924A xenograft models, doxycycline-inducible shRNA; format: in vivo, scid mice; conditions: preventive setting, knockdown induced by doxycycline one day after orthotopic implantation
Description: The HCC model was created by the direct intrahepatic injection of rat MH3924A cells harboring inducible shRNA Pycr1.2 or scrambled shRNA constructs into scid mice (InVivos, Singapore). The mice were anesthetized and a midline incision was made to expose the liver. The cells were then slowly injected under the hepatic capsule into the upper left lobe of the liver using a 27-G needle. A pale, whitish color could be observed at the point of injection under the hepatic capsule. Gentle compression was applied with a cotton applicator to stop bleeding and reflux of the cells. The abdomen was closed with a 4-0 silk suture.
In the preventive setting (FIG. 7), shRNA expression was induced the day after cell injection by adding 1 μg/ml doxycycline to the drinking water. Two weeks later, animals were sacrificed and tumors excised for analysis (n=5).
In the therapeutic setting, mice were subjected to liver MRI (magnetic resonance imaging) 7 days (1st experiment, FIG. 8) or 10 days (2nd experiment, FIG. 9) after cell injection and shRNA expression was induced one or four days later by adding 1 μg/ml doxycycline to the drinking water. On day 19 (1st experiment) or 21 (2nd experiment), animals were subjected to liver MRI and sacrificed. Tumors were lysed and analyzed for PYCR1 by Western blot.

rat MH3924A cells [3] = system: rat MH3924A cells
Description: Morris hepatoma cells (MH3924A) were cultured in Dulbecco's modified eagle medium (DMEM) media supplemented with 10% fetal bovine serum (FBS), 100 IU/ml penicillin, 100 μg/ml streptomycin. To assess cell proliferation, cells were seeded in T25 flasks and incubated in DMEM complete medium for 24 hours to allow attachment. Subsequently, seeding cells were infected with shRNA lentivirus in the presence of 8μg/ ml of polybrene for about 7 hours, cells were grown for varying lengths of time, at the end of which they were detached by trypsinization and counted with Countess (Life Technologies, Carlsbad, USA).

[4] = target: T1, PYCR1 full length recombinant enzyme (aa 1-319) (Homo sapiens, UniProt P32322); assay: PYCR1 Inhibition Assay (NAD(P)H-Glo luminescence); format: biochemical; conditions: 5 mM L-proline + 0.5 mM NAD+, 4.2 nM enzyme, 45 min at room temperature
T1 construct: PYCR1 full length recombinant enzyme (aa 1-319) with a 6His-tag at the N-terminus; 6His (N); made in house; host or cells: E. coli
T1 sequence (P32322 1-319): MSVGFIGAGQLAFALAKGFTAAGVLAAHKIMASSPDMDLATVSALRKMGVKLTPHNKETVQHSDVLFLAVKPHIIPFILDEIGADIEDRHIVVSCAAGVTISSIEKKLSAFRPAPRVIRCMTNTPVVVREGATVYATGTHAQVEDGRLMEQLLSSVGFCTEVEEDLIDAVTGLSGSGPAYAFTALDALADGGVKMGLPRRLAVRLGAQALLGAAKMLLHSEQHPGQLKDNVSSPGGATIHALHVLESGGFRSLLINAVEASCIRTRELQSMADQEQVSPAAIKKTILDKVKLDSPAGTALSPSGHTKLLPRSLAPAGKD
Description: An example for such assay may look as follows:
The assay is based on the ability of PYCR1 to catalyze the oxidation of L-proline to L-1 pyrroline-5-carboxylate which occurs concomitant with the reduction of the cosubstrate NAD^+ to its reduced form NADH+H^+. The amount of NADH+H^+ was quantified using the NAD(P)H-Glo™ kit from Promega (catalogue number G9062). Components of the kit generate a luciferase-based luminescence signal the intensity of which is linearly proportional to the amount of NADH+H^+ generated by the PYCR1 reaction and consequently the PYCR1 activity. The luminescence intensity was taken as the measure for the amount of NADH+H^+ generated by PYCR1. […] 40 nl Test compound (dissolved and serially diluted in DMSO at final concentrations during the enzymatic reaction ranging from 6.9E-09 M to 4.5E-05 M) is added to the well of a white 1536-well microtiter plate using an acoustic dispenser (Echo Liquid Handler from Labcyte Inc.) • 2. […] Preincubation of enzyme and test compound for approximately 15 min at room temperature • 4. Add 2.0 μl Substrate mix in assay buffer (5 mM L-proline+0.5 mM NAD^+ final concentration during the enzymatic reaction) • 5. 45 min PYCR1 reaction at room temperature (linear range of the enzymatic reaction) • 6. Add 1.0 μl Stopping agent in assay buffer (2 mM ZnCl2 final concentration) • 7. Incubate for 15 min at room temperature • 8. Add 2.0 μl NAD(P)H-Glo™ reagent (Promega) • 9. Incubate for 30-150 min at room temperature for generation of the persistent luminescence signal • 10. Measure luminescence intensity in a ViewLux Imager (PerkinElmer)

“shRNA Pycr1.2: Rat PYCR1.2 shRNA: GAACCTGACACCCCACAACAA, short hairpin oligonucleotide targeting rat Pycr1 in lentiviral vector pLKO or pLKO-Tet” was tested, and the tumor weight (rat MH3924A cells [1]; MH3924A cells stably expressing shRNA, 3 weeks, n=5) was “significantly reduced”, the “tumor growth in vivo” value (rat MH3924A cells [1]; tumors excised 3 weeks later) was “significantly inhibited tumor growth” and the tumor growth (rat MH3924A cells [2]) was “significantly reduced tumor growth”. For the same compound, the cell growth (rat MH3924A cells [3]; doxycycline-inducible PYCR1 knockdown MH3924A cell line, with vs without doxycycline) was “reduced cell growth” and the cell proliferation (rat MH3924A cells [3]; rat MH3924A cells, shRNA knockdown vs scrambled shRNA) was “reduced proliferation”.

Work on `O=C(Cc1ccc(C(=O)O)cc1)NC(c1ccccc1)c1ccccc1N1CCCCC1` (centres unmarked) [4-(2-oxo-2-{[phenyl(2-piperidin-1-ylphenyl)methyl]amino}ethyl)benzoic acid] yielded an IC50 [4] of 7.3 µM.

`O=C(CCCc1nc(-c2ccc(Cl)cc2)no1)Nc1ccccc1C(=O)O` [2-({4-[3-(4-chlorophenyl)-1,2,4-oxadiazol-5-yl]butanoyl}amino)benzoic acid] gave an IC50 [4] of 8 µM.

For `COc1ccc(C(=O)c2oc3ccccc3c2CSCCC(=O)OC(C)(C)C)cc1C(=O)O` [5-[(3-{[(3-tert-butoxy-3-oxopropyl)thio]methyl}-1-benzofuran-2-yl)carbonyl]-2-methoxybenzoic acid], the IC50 [4] was 8.5 µM.

— patent US20190031773A1, “INHIBITORS AND ANTAGONISTS OF HUMAN PYCR1” (AGENCY FOR SCIENCE, TECHNOLOGY AND RESEARCH, priority 2017, published 2019)
